The values below come from patent publication US20240199613A1 (TAKEDA PHARMACEUTICAL COMPANY LIMITED, priority 2021, published 2024).

Structures can show the parent of a compound that is named as a salt. Some results are limits rather than exact numbers.

One may read the EC50 as the concentration giving half of the maximal effect. Usually IC90 stands for the concentration needed for an effect of 90%. A high value points to weaker potency.

The target in test [1] is human activated kallikrein enzyme (Homo sapiens, UniProt P03952). As to the kind of experiment: Inhibition of activated plasma kallikrein, fluorogenic peptide substrate (PFR-AMC) assay, 500 pM enzyme format. The conditions noted are these: 500 pM activated kallikrein, 300 uM PFR-AMC, 30 min preincubation, 10 min reaction, room temperature; read-out: Primary Dose Response Assay: Average EC50. The test is classed as biochemical. The essentials: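 500 pM enzyme preincubated 30 min at room temperature with inhibitor in 20 mM Tris pH 7.5, 150 mM NaCl, 1 mM EDTA, 0.1% PEG-400, 0.1% Triton X-100. Reaction started with 300 uM PFR-AMC and run 10 min at room temperature. Fluorescence read at 380 nm excitation/460 nm emission.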
Sequence of human activated kallikrein enzyme (P03952 391-638 limits assumed): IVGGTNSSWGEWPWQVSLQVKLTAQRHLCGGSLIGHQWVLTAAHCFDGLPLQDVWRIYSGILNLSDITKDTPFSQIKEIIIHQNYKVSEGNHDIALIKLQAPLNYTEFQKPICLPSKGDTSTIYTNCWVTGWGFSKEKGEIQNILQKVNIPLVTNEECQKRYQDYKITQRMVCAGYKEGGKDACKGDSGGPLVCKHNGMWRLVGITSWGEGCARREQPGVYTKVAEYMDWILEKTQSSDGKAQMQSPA
Sequence of human activated kallikrein enzyme (P03952 20-390 partner limits assumed): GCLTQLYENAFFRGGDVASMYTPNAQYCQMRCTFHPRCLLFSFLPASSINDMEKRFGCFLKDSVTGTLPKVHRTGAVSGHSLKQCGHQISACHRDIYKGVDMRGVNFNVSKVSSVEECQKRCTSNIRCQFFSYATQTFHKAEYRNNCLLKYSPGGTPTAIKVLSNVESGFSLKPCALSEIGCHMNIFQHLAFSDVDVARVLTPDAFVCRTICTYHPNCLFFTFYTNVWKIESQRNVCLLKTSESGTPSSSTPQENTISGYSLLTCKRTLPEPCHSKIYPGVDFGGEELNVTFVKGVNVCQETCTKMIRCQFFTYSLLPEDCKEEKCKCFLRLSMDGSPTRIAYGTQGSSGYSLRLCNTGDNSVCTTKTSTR

The target of the next test is T1, plasma kallikrein (Homo sapiens, UniProt P03952).
T1 construct: from tissue; host or cells: sodium citrate collected human plasma (78% final)
T1 sequence (P03952 391-638 limits assumed): as the sequence (P03952 391-638 limits assumed) above
T1 sequence (P03952 20-390 partner limits assumed): as the sequence (P03952 20-390 partner limits assumed) above
As to the kind of experiment: Neat human plasma assay: contact pathway-activated (FXIIa) plasma, PFR-AMC substrate. The conditions noted are these: citrated human plasma (78% final), 10 nM human FXIIa, 100 μM PFR-AMC, room temperature. The test is classed as biochemical. The method in brief: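 Compounds spiked into citrated human or rat plasma (78% final), or plasma taken from orally or IV dosed rats, activated with 10 nM human FXIIa; 100 μM PFR-AMC cleavage read at 360/480 nm for 5 min, room temperature. Rates vs concentration fit to 4-parameter IC50/IC90 equation.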

As to `Cc1ccnc([C@H]2C[C@@H]2c2cc(O)c3ccc(N4C[C@@H](O)C[C@@H]4c4cn5cc(C6CC6)ccc5n4)cc3n2)n1` (relative stereo) [Example 54, rac-7-((2R,4S)-2-(6-cyclopropylimidazo[1,2-a]pyridin-2-yl)-4-hydroxypyrrolidin-1-yl)-2-((1S*,2S*)-2-(4-methylpyrimidin-2-yl)cyclopropyl)quinolin-4-ol], in test [1], the EC50 lay within 1 to 10 nM. Besides, the IC90 at plasma kallikrein fell in the range of 1500 to 10000 nM.
On the same counts, the results for `CCN1CCN(c2cc(C3CC3)cn3cc(CNc4ccc5ccc([C@H]6C[C@@H]6c6nccc(C)n6)nc5c4)nc23)CC1` (racemic) [Example 74, rac-N-((6-cyclopropyl-8-(4-ethylpiperazin-1-yl)imidazo[1,2-a]pyridin-2-yl)methyl)-2-((1S*,2S*)-2-(4-methylpyrimidin-2-yl)cyclopropyl)quinolin-7-amine] are at most 1 nM and 1500 to 10000 nM.
As for `Cc1ccnc([C@H]2C[C@@H]2c2nc(=O)c3ccc(NCc4cn5cc(C6CC6)cc(N6CC(=O)N(C)C6=O)c5n4)cc3[nH]2)n1` (racemic) [Example 8, rac-1-(6-cyclopropyl-2-(((2-((1S*,2S*)-2-(4-methylpyrimidin-2-yl)cyclopropyl)-4-oxo-1,4-dihydroquinazolin-7-yl)amino)methyl)imidazo[1,2-a]pyridin-8-yl)-3-methylimidazolidine-2,4-dione], the EC50 in test [1] is at most 1 nM. This compound also gave an IC90 at plasma kallikrein of 1500 to 10000 nM.
The corresponding values for `Cc1ccnc([C@H]2C[C@@H]2c2ccc3ccc(NCc4cn5cc(C6CC6)cc(N6CC(=O)N(C)C6=O)c5n4)cc3n2)n1` (racemic) [Example 57, rac-1-(6-cyclopropyl-2-(((2-((1S*,2S*)-2-(4-methylpyrimidin-2-yl)cyclopropyl)quinolin-7-yl)amino)methyl)imidazo[1,2-a]pyridin-8-yl)-3-methylimidazolidine-2,4-dione] are at most 1 nM and 1500 to 10000 nM.
The corresponding values for `Cc1ccnc([C@H]2C[C@@H]2c2cc(-n3ccnc3)c3ccc(NCc4cn5cc(C6CC6)cc(N6CC(=O)N(C)C6=O)c5n4)cc3n2)n1` (racemic) [Example 25, rac-1-(2-(((4-(1H-imidazol-1-yl)-2-((1S*,2S*)-2-(4-methylpyrimidin-2-yl)cyclopropyl)quinolin-7-yl)amino)methyl)-6-cyclopropylimidazo[1,2-a]pyridin-8-yl)-3-methylimidazolidine-2,4-dione] are at most 1 nM and 1500 to 10000 nM.
In the case of `Cc1ccnc([C@H]2C[C@@H]2c2cc(N3CC4(COC4)C3)c3cnc(OCc4cn5cc(C6CC6)cc(N6CC(=O)N(C)C6=O)c5n4)cc3n2)n1` [Example 103, 1-(6-cyclopropyl-2-(((2-((1S,2S)-2-(4-methylpyrimidin-2-yl)cyclopropyl)-4-(2-oxa-6-azaspiro[3.3]heptan-6-yl)-1,6-naphthyridin-7-yl)oxy)methyl)imidazo[1,2-a]pyridin-8-yl)-3-methylimidazolidine-2,4-dione], the EC50 in test [1] was at most 1 nM. The same compound registered an IC90 on plasma kallikrein of at most 400 nM.
On the same counts, the results for `Cc1ccnc([C@H]2C[C@@H]2c2cc(OC3COC3)c3ccc(NCc4cn5cc(C6CC6)cc(N6CC(=O)N(C)C6=O)c5n4)cc3n2)n1` (racemic) [Example 33, rac-1-(6-cyclopropyl-2-(((2-((1S*,2S*)-2-(4-methylpyrimidin-2-yl)cyclopropyl)-4-(oxetan-3-yloxy)quinolin-7-yl)amino)methyl)imidazo[1,2-a]pyridin-8-yl)-3-methylimidazolidine-2,4-dione] are at most 1 nM and 400 to 1500 nM.
As to `Cc1ccnc([C@H]2C[C@@H]2c2cc(N3CC4(COC4)C3)c3ccc(N[C@H](C)c4cn5cc(C6CC6)cc(N6CC(=O)N(C)C6=O)c5n4)cc3n2)n1` [Example 101, 1-(6-cyclopropyl-2-((R)-1-((2-((1S,2S)-2-(4-methylpyrimidin-2-yl)cyclopropyl)-4-(2-oxa-6-azaspiro[3.3]heptan-6-yl)quinolin-7-yl)amino)ethyl)imidazo[1,2-a]pyridin-8-yl)-3-methylimidazolidine-2,4-dione], the EC50 in test [1] is at most 1 nM. Besides, the IC90 against plasma kallikrein was at most 400 nM.
The corresponding values for `Cc1ccnc([C@H]2C[C@@H]2c2cc(O)c3cnc(NCc4cn5cc(C6CC6)cc(N6CC(=O)N(C)C6=O)c5n4)nc3n2)n1` (racemic) [Example 86, rac-1-(6-cyclopropyl-2-(((5-hydroxy-7-((1S*,2S*)-2-(4-methylpyrimidin-2-yl)cyclopropyl)pyrido[2,3-d]pyrimidin-2-yl)amino)methyl)imidazo[1,2-a]pyridin-8-yl)-3-methylimidazolidine-2,4-dione] are at most 1 nM and 1500 to 10000 nM.
On the same counts, the results for `Cc1ccnc([C@H]2C[C@@H]2c2ncc3ccc(NCc4cn5cc(C6CC6)cc(N6CC(=O)N(C)C6=O)c5n4)cc3n2)n1` (racemic) [Example 60, rac-1-(6-cyclopropyl-2-(((2-((1S*,2S*)-2-(4-methylpyrimidin-2-yl)cyclopropyl)quinazolin-7-yl)amino)methyl)imidazo[1,2-a]pyridin-8-yl)-3-methylimidazolidine-2,4-dione] are 1 to 10 nM and 10000 to 22000 nM.
On the same counts, the results for `Cc1ccnc([C@H]2C[C@@H]2c2ccc3cnc(NCc4cn5cc(C6CC6)cc(N6CC(=O)N(C)C6=O)c5n4)cc3n2)n1` (racemic) [Example 15, rac-1-(6-cyclopropyl-2-(((2-((1S*,2S*)-2-(4-methylpyrimidin-2-yl)cyclopropyl)-1,6-naphthyridin-7-yl)amino)methyl)imidazo[1,2-a]pyridin-8-yl)-3-methylimidazolidine-2,4-dione formic acid salt] are 1 to 10 nM and 1500 to 10000 nM.
Consider `Cc1ccnc([C@H]2C[C@@H]2c2ccc3c(C#N)cc(NCc4cn5cc(C6CC6)cc(N6CC(=O)N(C)C6=O)c5n4)cc3n2)n1` (racemic) [Example 82, rac-7-(((6-cyclopropyl-8-(3-methyl-2,4-dioxoimidazolidin-1-yl)imidazo[1,2-a]pyridin-2-yl)methyl)amino)-2-((1S*,2S*)-2-(4-methylpyrimidin-2-yl)cyclopropyl)quinoline-5-carbonitrile], for which the EC50 in test [1] lay in the range of 1 to 10 nM. On plasma kallikrein, this compound displayed an IC90 of 1500 to 10000 nM.
Take `Cc1cc(N2CC(=O)N(C)C2=O)c2nc(COc3ccc4c(N5CC6(COC6)C5)cc([C@H]5C[C@@H]5c5nccc(C)n5)nc4c3)cn2c1` [Example 96, 3-methyl-1-(6-methyl-2-(((2-((1S,2S)-2-(4-methylpyrimidin-2-yl)cyclopropyl)-4-(2-oxa-6-azaspiro[3.3]heptan-6-yl)quinolin-7-yl)oxy)methyl)imidazo[1,2-a]pyridin-8-yl)imidazolidine-2,4-dione]: the EC50 in test [1] was at most 1 nM. This compound gave an IC90 at plasma kallikrein of at most 400 nM.
On the same counts, the results for `Cc1ccnc([C@H]2C[C@@H]2c2cc(N3CC4(COC4)C3)c3ccc(OCc4cc5cc(C6CC6)cc(N6CC(=O)N(C)C6=O)n5n4)cc3n2)n1` [Example 108, 1-(5-cyclopropyl-2-(((2-((1S,2S)-2-(4-methylpyrimidin-2-yl)cyclopropyl)-4-(2-oxa-6-azaspiro[3.3]heptan-6-yl)quinolin-7-yl)oxy)methyl)pyrazolo[1,5-a]pyridin-7-yl)-3-methyl imidazolidine-2,4-dione] are at most 1 nM and at most 400 nM.
On the same counts, the results for `Cc1ccnc([C@H]2C[C@@H]2c2cc(N3CC4(COC4)C3)c3ccc(OCc4cn5cc(C6CC6)cc(N6CC(=O)N(C)C6=O)c5n4)cc3n2)n1` [Example 43, 1-[6-cyclopropyl-2-[[2-[(1S,2S)-2-(4-methylpyrimidin-2-yl)cyclopropyl]-4-(2-oxa-6-azaspiro[3.3]heptan-6-yl)-7-quinolyl]oxymethyl]imidazo[1,2-a]pyridin-8-yl]-3-methyl-imidazolidine-2,4-dione] are at most 1 nM and at most 400 nM.
Consider `Cc1ccnc([C@H]2C[C@@H]2C2=NS(=O)(=O)c3ccc(OCc4cn5cc(C6CC6)ccc5n4)cc3N2)n1` [Example 91, 6-((6-cyclopropylimidazo[1,2-a]pyridin-2-yl)methoxy)-3-((1S,2S)-2-(4-methylpyrimidin-2-yl)cyclopropyl)-4H-benzo[e][1,2,4]thiadiazine 1,1-dioxide], for which the EC50 in test [1] was at most 1 nM. The compound further came in with an IC90 against plasma kallikrein of 1500 to 10000 nM.
Consider `Cc1ccnc([C@H]2C[C@@H]2c2cc(N(C)C)c3ccc(NCc4cn5cc(C6CC6)ccc5n4)cc3n2)n1` (racemic) [Example 1, rac-N^7-((6-cyclopropylimidazo[1,2-a]pyridin-2-yl)methyl)-N^4,N^4-dimethyl-2-((1S*,2S*)-2-(4-methylpyrimidin-2-yl)cyclopropyl)quinoline-4,7-diamine], for which the EC50 in test [1] is at most 1 nM. The IC90 against plasma kallikrein fell in the range of 400 to 1500 nM.
Consider `Cc1ccnc([C@H]2C[C@@H]2c2cc(CC#N)c3ccc(NCc4cn5cc(C6CC6)cc(N6CC(=O)N(C)C6=O)c5n4)cc3n2)n1` (racemic) [Example 85, rac-2-(7-(((6-cyclopropyl-8-(3-methyl-2,4-dioxoimidazolidin-1-yl)imidazo[1,2-a]pyridin-2-yl)methyl)amino)-2-((1S*,2S*)-2-(4-methylpyrimidin-2-yl)cyclopropyl)quinolin-4-yl)acetonitrile], for which the EC50 in test [1] was at most 1 nM. Also, the IC90 against plasma kallikrein is 1500 to 10000 nM.
